# Experimental data published in US20240024291A1, “Uses of Dihydroorotate Dehydrogenase Inhibitors” (University of Maryland, Baltimore, priority 2022, published 2024).
# What was measured:
# [1] = tested on: 913 glioblastoma neurosphere line; assay: CellTiter-Glo in vitro proliferation assay; format: cell-based, human
# Protocol: A Biospherix X3, hypoxic incubation system, was maintained at 37° C., 1% 02, 5% CO2, and 94% N2 (Biospherix, Ltd—Parish, NY) to conduct in vitro hypoxic experiments. Cells were plated, then incubated in normoxia overnight before transferring the culture dishes to hypoxia for the duration indicated in the main text.
# […] Cell Titer-Glo® Luminescent Cell Viability Assay (Promega, Madison, WI, USA) was performed 72 hours after treatment. Luminescence was determined using a Cytation 5 reader and Gen5 software package (BioTek, Winooski, VT, USA).
# The compound's efficacy was examined against a collection of genetically diverse patient-derived GSC lines in vitro. The IC50 profiles of compound 1 in the seven GSC lines tested were established using the CellTiter-Glo® reagent and calculated with GraphPad software.
# [2] = tested on: EGFRviii expressing 08-387 and 913 glioblastoma cells; assay: Gemcitabine sensitization assay (Alamar blue); format: cell-based, human; settings: varying dosages of gemcitabine and 100 nM of compound 1
# Protocol: Ten thousand 08-387 or 913 glioblastoma cells per well were seeded in a 96 well plate. […] Post 72 hr of treatment, cell viability was calculated on Alamar blue absorbance reading.
# To further evaluate the potential role of EGFR in compound 1 resistance, the 913 and 08-387 neurosphere lines were transduced with lentiviruses encoding EGFRvIll or GFP (as control) and these neurospheres were challenged with a relatively high dose of 1 mM compound 1.
structure (smiles),measurement,setting,value
"CCn1c(CO)nn(-c2cc(O[C@@H](C)C(F)(F)F)c(C(=O)Nc3c(F)cccc3Cl)cc2F)c1=O [Compound 1, N-(2-chloro-6-fluorophenyl)-4-[4-ethyl-4,5-dihydro-3-(hydroxymethyl)-5-oxo-1H-1,2,4-triazol-1-yl]-5-fluoro-2-[(1S)-2,2,2-trifluoro-1-methylethoxy]-benzamide]",effect of uridine on growth inhibition,"[1]; 913, with 100 mM uridine, all concentrations tested",entirely rescued
same,IC50,"[1]; Homo sapiens, 913, uridine rescue experiment, compound 1 alone, normoxia and hypoxia",1 to 10 nM
same,IC50,"[1]; Homo sapiens, 72 h, 913, hypoxia (1% oxygen), 72 hours",6.7 nM
same,IC50,"[1]; Homo sapiens, 72 h, 913, normoxia (21% oxygen), 72 hours",15.3 nM
same,sensitization to gemcitabine,[2],sensitizes
